US20240148744A1 (Celgene Corporation, priority 2021, published 2024)
pIC50: −log10 of the molar value.

Assays:
Dirofilaria immitis = test: Heartworm screen Dirofilaria immitis (stage DiMF/DiL4 not specified in the tables); format: cell-based; conditions: read-out: D. immitis Activity class
[1] = tested on: Onchocerca gutturosa adult male worms; test: Onchocerca gutturosa in vitro screening model: adult worm motility score and MTT/formazan viability; format: cell-based; conditions: read-out: O. gutt Activity class

SMILES	pIC50 (Dirofilaria immitis)	pIC50 [1]
CN(C)c1cccnc1S(=O)(=O)Nc1cccc2c1N(C1CC1)CCC2 [Compound 42, N-(1-cyclo-propyl-1,2,3,4-tetra-hydroquin-olin-8-yl)-3-(dimethyl-amino)pyr-idine-2-sulfonamide]	5.30 to 6.30	5.30 to 6.30
O=S(=O)(Nc1cccc2cccnc12)c1cccc(Cl)n1 [Compound 221, 6-chloro-N-(quinolin-8-yl)pyridine-2-sulfonamide]	5.30 to 6.30	> 6.70
COc1ccnc(S(=O)(=O)Nc2cccc3cccnc23)c1 [Compound 222, 4-methoxy-N-(quinolin-8-yl)pyridine-2-sulfonamide]	6.30 to 6.70	> 6.70
CCn1ccnc1S(=O)(=O)Nc1c(C)ccc2cccnc12 [Compound 102, 1-ethyl-N-(7-methylquin-olin-8-yl)-1H-imidazole-2-sulfonamide]	6.30 to 6.70	> 6.70
COc1ccc(NS(=O)(=O)c2ccc(C)cn2)c2ncccc12 [Compound 123, N-(5-methoxy-quinolin-8-yl)-5-methylpyr-idine-2-sulfon-amide]	5.30 to 6.30	> 6.70
O=S(=O)(Nc1cccc2cccnc12)c1ccc(C(F)(F)F)nc1 [Compound 190, N-(quinolin-8-yl)-6-(trifluoromethyl) pyridine-3-sulfonamide]	> 6.70	> 6.70
CCn1ccnc1S(=O)(=O)Nc1cccc2cc(C)cnc12 [Compound 105, 1-ethyl-N-(3-methylquin-olin-8-yl)-1H-imidazole-2-sulfonamide]	5.30 to 6.30	> 6.70
Cc1ccc(S(=O)(=O)Nc2cccc3cccnc23)c(Cl)n1 [Compound 188, 2-chloro-6-methyl-N-(quinolin-8-yl)pyridine-3-sulfonamide]	5.30 to 6.30	> 6.70
CC(C)c1cccnc1S(=O)(=O)Nc1cccc2cccnc12 [Compound 211, 3-isopropyl-N-(quinolin-8-yl)pyridine-2-sulfonamide]	5.30 to 6.30	> 6.70
Cc1cccnc1S(=O)(=O)Nc1cccc2cc(N3CCOCC3)cnc12 [Compound 21, 3-methyl-N-(3-morpho-linoquinolin-8-yl)pyridine-2-sulfonamide]	5.30 to 6.30	> 6.70
CN(C)c1cccnc1S(=O)(=O)Nc1cccc2cccnc12 [Compound 208, 3-(dimethylamino)-N-(quinolin-8-yl)pyridine-2-sulfonamide]	5.30 to 6.30	> 6.70
CN(C)C(=O)c1cccnc1S(=O)(=O)Nc1cccc2cccnc12 [Compound 207, N,N-dimethyl-2-(N-quinolin-8-ylsulfamoyl) nicotinamide]	5.30 to 6.30	5.30 to 6.30
Cc1cc(C)c(S(=O)(=O)Nc2cccc3cccnc23)c(Cl)n1 [Compound 177, 2-chloro-4,6-dimethyl-N-(quinolin-8-yl)pyridine-3-sulfonamide]	5.30 to 6.30	5.30 to 6.30
COc1ccnc2c(NS(=O)(=O)c3ncccc3C)cccc12 [Compound 14, N-(4-meth-oxyquinolin-8-yl)-3-meth-ylpyridine-2-sulfonamide]	5.30 to 6.30	5.30 to 6.30
N#Cc1cccc(S(=O)(=O)Nc2ccc(F)c3cccnc23)c1 [Compound 72, 3-cyano-N-(5-fluoroquin-olin-8-yl)ben-zenesulfon-amide]	5.30 to 6.30	> 6.70
Cc1cn(C)c(S(=O)(=O)Nc2cccc3cccnc23)n1 [Compound 231, 1,4-dimethyl-N-(quinolin-8-yl)-1H-imidazole-2-sulfonamide]	> 6.70	5.30 to 6.30
O=S(=O)(Nc1c(Cl)ccc2cccnc12)c1ncccc1Cl [Compound 73, 3-chloro-N-(7-chloro-quinolin-8-yl)pyridine-2-sulfonamide]	5.30 to 6.30	> 6.70
Cc1ccc(S(=O)(=O)Nc2c(Cl)ccc3cccnc23)nc1 [Compound 114, N-(7-chloro-quinolin-8-yl)-5-methylpyr-idine-2-sulfon-amide]	5.30 to 6.30	> 6.70
CN(C)c1cccnc1S(=O)(=O)Nc1c(Cl)ccc2cccnc12 [Compound 99, N-(7-chloro-quinolin-8-yl)-3-(dimethyl-amino)pyridine-2-sulfonamide]	5.30 to 6.30	5.30 to 6.30
Cc1cccnc1S(=O)(=O)Nc1cccc2cc(C3CC3)cnc12 [Compound 29, N-(3-cyclo-propylquin-olin-8-yl)-3-methylpyr-idine-2-sulfonamide]	5.30 to 6.30	5.30 to 6.30
N#Cc1nc(Cl)ccc1S(=O)(=O)Nc1cccc2cccnc12 [Compound 169, 6-chloro-2-cyano-N-(quinolin-8-yl)pyridine-3-sulfonamide]	5.30 to 6.30	5.30 to 6.30
CN(C)c1cccnc1S(=O)(=O)Nc1cccc2c1NCCC2 [Compound 45, 3-(dimethyl-amino)-N-(1,2,3,4-tetra-hydroquin-olin-8-yl)-pyridine-2-sulfonamide]	5.30 to 6.30	5.30 to 6.30
Cc1ccc(S(=O)(=O)Nc2cc(C)cc3cccnc23)nc1 [Compound 127, 5-methyl-N-(6-methylquin-olin-8-yl)pyr-idine-2-sulfon-amide]	6.30 to 6.70	> 6.70
Cc1ccc(S(=O)(=O)Nc2ccc(C)c3cccnc23)nc1 [Compound 58, 5-methyl-N-(5-methyl-quinolin-8-yl)pyridine-2-sulfonamide]	5.30 to 6.30	6.30 to 6.70

SMILES	pIC50 (Dirofilaria immitis)	pIC50 [1]
O=S(=O)(Nc1cccc2cccnc12)c1ncccc1Cl [Compound 215, 3-chloro-N-(quinolin-8-yl)pyridine-2-sulfonamide]	5.30 to 6.30	> 6.70
O=S(=O)(Nc1cccc2cccnc12)c1nccn1C1(C(F)(F)F)CC1 [Compound 168, N-(quinolin-8-yl)-1-(1-(trifluoromethyl)cyclopropyl)-1H-imidazole-2-sulfonamide]	6.30 to 6.70	> 6.70
CCn1ccnc1S(=O)(=O)Nc1ccc(Br)c2cccnc12 [Compound 293, N-(5-bromoquinolin-8-yl)-1-ethyl-1H-imidazole-2-sulfonamide]	> 6.70	
Cc1ccccc1S(=O)(=O)Nc1cccc2cccnc12 [Compound 266, 2-methyl-N-(quinolin-8-yl)benzenesulfon-amide]	5.30 to 6.30	
COc1ccnc2c(NS(=O)(=O)c3ccc(C(F)(F)F)nc3)cccc12 [Compound 10, N-(4-meth-oxyquinolin-8-yl)-6-(trifluoro-methyl)pyr-idine-3-sulfonamide]	5.30 to 6.30	
Cc1ccc(C(F)(F)F)c(S(=O)(=O)Nc2cccc3cccnc23)n1 [Compound 165, 6-methyl-N-(quinolin-8-yl)-3-(trifluoromethyl) pyridine-2-sulfonamide]	6.30 to 6.70	
Cc1cnccc1S(=O)(=O)Nc1cccc2cccnc12 [Compound 149, 3-methyl-N-(quinolin-8-yl)pyridine-4-sulfonamide]	5.30 to 6.30	
COc1cnc2c(NS(=O)(=O)c3ccc(C(F)(F)F)nc3)cccc2c1 [Compound 11, N-(3-meth-oxyquinolin-8-yl)-6-(trifluoro-methyl)pyr-idine-3-sulfonamide]	5.30 to 6.30	
COc1ccc2cccnc2c1NS(=O)(=O)c1ccc(C)cn1 [Compound 111, N-(7-methoxy-quinolin-8-yl)-5-methylpyr-idine-2-sulfonamide]	5.30 to 6.30	
Cc1ccncc1S(=O)(=O)Nc1cccc2cccnc12 [Compound 148, 4-methyl-N-(quinolin-8-yl)pyridine-3-sulfonamide]	5.30 to 6.30	
CCn1ccnc1S(=O)(=O)Nc1cccc2c(Cl)ccnc12 [Compound 85, N-(4-chloro-quinolin-8-yl)-1-ethyl-1H-imidazole-2-sulfonamide]	5.30 to 6.30	
O=S(=O)(Nc1ccc(C(F)(F)F)c2cccnc12)c1nccn1-c1ccccc1 [Compound 289, 1-phenyl-N-(5-(trifluoromethyl)quinolin-8-yl)-1H-imidazole-2-sulfonamide]	> 6.70	
CCn1ccnc1S(=O)(=O)Nc1cccc2cc(C(C)=O)cnc12 [Compound 287, N-(3-acetylquinolin-8-yl)-1-ethyl-1H-imidazole-2-sulfonamide]	6.30 to 6.70	
CCn1ccnc1S(=O)(=O)Nc1ccc(C#N)c2cccnc12 [Compound 290, N-(5-cyanoquinolin-8-yl)-1-ethyl-1H-imidazole-2-sulfonamide]	6.30 to 6.70	
Cc1ccc2cccc(NS(=O)(=O)c3ncccc3C)c2n1 [Compound 67, 3-methyl-N-(2-methyl-quinolin-8-yl)pyridine-2-sulfonamide]	5.30 to 6.30	
O=S(=O)(Nc1cccc2cccnc12)c1cncc(C(F)(F)F)c1 [Compound 263, N-(quinolin-8-yl)-5-(trifluoromethyl) pyridine-3-sulfonamide]	6.30 to 6.70	
Cc1ccc(S(=O)(=O)Nc2cc(Cl)cc3cccnc23)nc1 [Compound 115, N-(6-chloro-quinolin-8-yl)-5-methylpyr-idine-2-sulfon-amide]	5.30 to 6.30	
O=S(=O)(Nc1c(Cl)cc(F)c2cccnc12)c1ncccc1C1CC1 [Compound 140, N-(7-chloro-5-fluoroquinolin-8-yl)-3-cyclo-propylpyridine-2-sulfonamide]	5.30 to 6.30	
O=S(=O)(Nc1cc(F)cc2cccnc12)c1nccn1-c1ccc(C(F)(F)F)cc1 [Compound 295, N-(6-fluoroquinolin-8-yl)-1-(4-(trifluoromethyl)phenyl)-1H-imidazole-2-sulfonamide]	> 6.70	
O=S(=O)(Nc1cccc2cccnc12)c1cnccc1C(F)(F)F [Compound 147, N-(quinolin-8-yl)-4-(trifluoromethyl) pyridine-3-sulfonamide]	5.30 to 6.30	
O=S(=O)(Nc1cccc2cccnc12)c1nc2ccccc2[nH]1 [Compound 232, N-(quinolin-8-yl)-1H-benzo[d] imidazole-2-sulfonamide]	5.30 to 6.30	
O=S(=O)(Nc1ccc(-c2ccc(F)cc2)c2cccnc12)c1nccn1CC(F)(F)F [Compound 296, N-(5-(4-fluorophenyl)quinolin-8-yl)-1-(2,2,2-trifluoroethyl)-1H-imidazol-2-sulfonamide]	> 6.70	
CCn1ccnc1S(=O)(=O)Nc1cccc2cc(N(C)C)cnc12 [Compound 286, N-(3-(dimethylamino)quinolin-8-yl)-1-ethyl-1H-imidazole-2-sulfonamide]	6.30 to 6.70	
